Test results published in ChEMBL document CHEMBL2203184, “Synthesis of novel triplet drugs with 1,3,5-trioxazatriquinane skeletons and their pharmacologies. 3: synthesis of novel triplet drugs with the bis(epoxymethano) or bis(dimethylepoxymethano) structure (double-capped triplet)” (Bioorg Med Chem Lett, 2012).

Experiments:
Mu-type opioid receptor [1] = target: Mu-type opioid receptor (Mus musculus, UniProt P42866); assay: Displacement of [3H]DAMGO from mu opioid receptor in mouse whole brain without cerebellum
Sequence of Mu-type opioid receptor (Mus musculus, UniProt P42866) (P42866 whole entry): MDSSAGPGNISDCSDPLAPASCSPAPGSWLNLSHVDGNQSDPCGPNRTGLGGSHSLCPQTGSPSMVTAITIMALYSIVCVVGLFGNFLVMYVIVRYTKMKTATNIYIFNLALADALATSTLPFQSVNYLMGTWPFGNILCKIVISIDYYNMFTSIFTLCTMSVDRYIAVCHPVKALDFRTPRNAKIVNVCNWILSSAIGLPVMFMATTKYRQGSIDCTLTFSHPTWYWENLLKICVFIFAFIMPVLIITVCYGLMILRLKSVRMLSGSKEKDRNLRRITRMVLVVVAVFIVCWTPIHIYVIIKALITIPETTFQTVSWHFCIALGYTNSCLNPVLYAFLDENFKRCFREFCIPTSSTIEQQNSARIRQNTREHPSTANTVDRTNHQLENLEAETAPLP

[2] = Selectivity ratio of Ki for delta opioid receptor in mouse whole brain without cerebellum to Ki for kappa opioid receptor in guinea pig cerebellum
[3] = Selectivity ratio of Ki for mu opioid receptor in mouse whole brain without cerebellum to Ki for kappa opioid receptor in guinea pig cerebellum
[4] = Selectivity ratio of Ki for kappa opioid receptor in guinea pig cerebellum to Ki for mu opioid receptor in mouse whole brain without cerebellum
[5] = target: Kappa-type opioid receptor (Cavia porcellus, UniProt P41144); assay: Displacement of [3H]U-69,593 from kappa opioid receptor in guinea pig cerebellum
Sequence of Kappa-type opioid receptor (Cavia porcellus, UniProt P41144) (P41144 whole entry): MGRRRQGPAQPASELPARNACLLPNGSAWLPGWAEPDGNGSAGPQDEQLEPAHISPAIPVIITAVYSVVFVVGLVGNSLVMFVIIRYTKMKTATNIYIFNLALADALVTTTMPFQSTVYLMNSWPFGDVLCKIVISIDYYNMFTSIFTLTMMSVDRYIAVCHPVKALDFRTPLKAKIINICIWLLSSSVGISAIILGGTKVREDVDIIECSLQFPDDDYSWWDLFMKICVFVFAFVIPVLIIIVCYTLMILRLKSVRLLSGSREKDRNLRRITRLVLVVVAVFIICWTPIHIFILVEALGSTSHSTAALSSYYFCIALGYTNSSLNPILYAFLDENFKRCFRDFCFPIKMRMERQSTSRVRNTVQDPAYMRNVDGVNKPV

[6] = target: Delta-type opioid receptor (Mus musculus, UniProt P32300); assay: Displacement of [3H]DPDPE from delta opioid receptor in mouse whole brain without cerebellum
Sequence of Delta-type opioid receptor (P32300 whole entry): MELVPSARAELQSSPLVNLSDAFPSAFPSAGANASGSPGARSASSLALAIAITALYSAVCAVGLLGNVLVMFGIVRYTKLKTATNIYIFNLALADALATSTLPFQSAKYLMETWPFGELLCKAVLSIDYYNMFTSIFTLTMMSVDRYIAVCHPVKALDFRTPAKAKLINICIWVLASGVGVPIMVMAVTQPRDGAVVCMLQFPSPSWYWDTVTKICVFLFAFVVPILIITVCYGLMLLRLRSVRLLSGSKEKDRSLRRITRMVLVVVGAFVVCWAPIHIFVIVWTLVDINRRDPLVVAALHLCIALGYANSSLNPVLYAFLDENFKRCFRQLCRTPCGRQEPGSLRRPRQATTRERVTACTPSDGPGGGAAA

Mus musculus = species on record: Mus musculus; assay: Selectivity ratio of Ki for delta opioid receptor in mouse whole brain without cerebellum to Ki for mu opioid receptor in mouse whole brain without cerebellum
[7] = target: T1, Kappa-type opioid receptor (Homo sapiens, UniProt P41145); assay: Agonist activity at human kappa opioid receptor expressed in CHO cells assessed as [35S]GTPgammaS binding after 2 hrs by liquid scintillation counting; type: functional, cell-based
T1 sequence (P41145 whole entry): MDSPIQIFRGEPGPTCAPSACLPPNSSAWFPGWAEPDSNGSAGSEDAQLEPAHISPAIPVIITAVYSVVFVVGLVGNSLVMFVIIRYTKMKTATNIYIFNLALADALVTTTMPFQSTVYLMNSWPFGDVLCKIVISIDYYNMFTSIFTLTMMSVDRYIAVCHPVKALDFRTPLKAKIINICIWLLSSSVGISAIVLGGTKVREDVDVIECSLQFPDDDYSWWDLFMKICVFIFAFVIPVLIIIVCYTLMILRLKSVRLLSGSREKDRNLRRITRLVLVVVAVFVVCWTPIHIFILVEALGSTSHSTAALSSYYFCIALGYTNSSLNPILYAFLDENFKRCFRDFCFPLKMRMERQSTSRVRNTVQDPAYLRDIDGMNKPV

[8] = target: T1, Kappa-type opioid receptor; assay: Agonist activity at human kappa opioid receptor expressed in CHO cells assessed as [35S]GTPgammaS binding after 2 hrs by liquid scintillation counting relative to U-69,593; type: functional, cell-based
Mu-type opioid receptor [9] = target: T2, Mu-type opioid receptor (Homo sapiens, UniProt P35372); assay: Agonist activity at human mu opioid receptor expressed in CHO cells assessed as [35S]GTPgammaS binding after 2 hrs by liquid scintillation counting relative to DAMGO; type: functional, cell-based
T2 sequence (P35372 whole entry): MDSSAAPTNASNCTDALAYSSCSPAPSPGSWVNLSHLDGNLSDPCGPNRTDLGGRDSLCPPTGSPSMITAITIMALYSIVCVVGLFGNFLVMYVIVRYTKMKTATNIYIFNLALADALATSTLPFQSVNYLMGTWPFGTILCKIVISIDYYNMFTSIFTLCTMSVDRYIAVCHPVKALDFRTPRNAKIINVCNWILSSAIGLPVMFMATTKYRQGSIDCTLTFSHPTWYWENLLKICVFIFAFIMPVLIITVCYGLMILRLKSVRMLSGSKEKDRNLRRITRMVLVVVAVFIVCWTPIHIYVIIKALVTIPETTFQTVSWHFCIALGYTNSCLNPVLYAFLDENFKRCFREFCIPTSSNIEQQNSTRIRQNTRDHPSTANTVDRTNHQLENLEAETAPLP

Mu-type opioid receptor [10] = target: T2, Mu-type opioid receptor; assay: Agonist activity at human mu opioid receptor expressed in CHO cells assessed as [35S]GTPgammaS binding after 2 hrs by liquid scintillation counting; type: functional, cell-based

Question: Which results are given for CC1(C)O[C@@H]2N3[C@H]1O[C@]1(CC[C@@]4(O)[C@H]5Cc6ccc(O)c7c6[C@@]4(CCN5CC4CC4)[C@H]1O7)[C@@H]3OC2(C)C?
Answer: Ki (Mu-type opioid receptor [1]): 5.35 nM; Ratio Ki [2]: 0.909; Ratio Ki [3]: 0.221; Ratio Ki [4]: 4.52; Ki [5]: 24.2 nM; Ki [6]: 22 nM; Ratio Ki (Mus musculus): 4.11

Question: For Oc1ccc2c3c1O[C@H]1[C@]4(CC[C@@]5(O)[C@@H](C2)N(Cc2ccccc2)CC[C@]315)O[C@@H]1CO[C@@H]2CO[C@H]4N21, which Ki (Mu-type opioid receptor [1]) is on record?
Answer: > 1000 nM

Question: And the Ki [5]?
Answer: > 1000 nM

Question: What about the Ki [6] of the same compound?
Answer: > 1000 nM

Question: Which results are given for Oc1ccc2c3c1O[C@H]1[C@]4(CC[C@@]5(O)[C@@H](C2)N(CC2CC2)CC[C@]315)O[C@H]1CO[C@H]2CO[C@@H]4N21?
Answer: Ki (Mu-type opioid receptor [1]): 6.85 nM; Ratio Ki [2]: 13.2; Ratio Ki [3]: 1.15; Ratio Ki [4]: 0.869; Ki [5]: 5.95 nM; Ki [6]: 78.6 nM; Ratio Ki (Mus musculus): 11.5

Question: For Oc1ccc2c3c1O[C@H]1[C@]4(CC[C@@]5(O)[C@@H](C2)N(CC2CC2)CC[C@]315)O[C@@H]1CO[C@@H]2CO[C@H]4N21, which Ki (Mu-type opioid receptor [1]) is on record?
Answer: 8.65 nM

Question: And the EC50 [7]?
Answer: 25 nM

Question: What about the Emax [8] of the same compound?
Answer: 70%

Question: And the Ratio Ki [2]?
Answer: 25.9

Question: And the Ratio Ki [3]?
Answer: 2.24

Question: What about the Ratio Ki [4] of the same compound?
Answer: 0.446

Question: What about the Ki [5] of the same compound?
Answer: 3.86 nM

Question: What about the Ki [6] of the same compound?
Answer: 99.8 nM

Question: And the Ratio Ki (Mus musculus)?
Answer: 11.5

Question: For CC(C)CN1CC[C@]23c4c5ccc(O)c4O[C@H]2[C@]2(CC[C@@]3(O)[C@H]1C5)O[C@H]1CO[C@H]3CO[C@@H]2N31, which Ki (Mu-type opioid receptor [1]) is on record?
Answer: 85.7 nM

Question: What about the Ratio Ki [2] of the same compound?
Answer: < 0.848

Question: And the Ratio Ki [3]?
Answer: < 0.086

Question: What about the Ratio Ki [4] of the same compound?
Answer: > 11.7

Question: And the Ki [5]?
Answer: > 1000 nM

Question: What about the Ki [6] of the same compound?
Answer: 848 nM

Question: And the Ratio Ki (Mus musculus)?
Answer: 9.89

Question: With CN1CC[C@]23c4c5ccc(O)c4O[C@H]2[C@]2(CC[C@@]3(O)[C@H]1C5)O[C@H]1CO[C@H]3CO[C@@H]2N31 as the compound, how does the Ki (Mu-type opioid receptor [1]) read?
Answer: 2.38 nM

Question: What about the Ratio Ki [2] of the same compound?
Answer: < 0.133

Question: And the Ratio Ki [3]?
Answer: < 0.0024

Question: What about the Ratio Ki [4] of the same compound?
Answer: > 420

Question: And the Ki [5]?
Answer: > 1000 nM

Question: And the Ki [6]?
Answer: 133 nM

Question: And the Ratio Ki (Mus musculus)?
Answer: 55.9

Question: What does the source list for Oc1ccc2c3c1O[C@H]1[C@]4(CC[C@@]5(O)[C@@H](C2)N(Cc2ccccc2)CC[C@]315)O[C@H]1CO[C@H]2CO[C@@H]4N21?
Answer: Ki (Mu-type opioid receptor [1]): 581 nM; Ratio Ki [2]: < 0.084; Ratio Ki [3]: < 0.581; Ratio Ki [4]: > 1.72; Ki [5]: > 1000 nM; Ki [6]: 84 nM; Ratio Ki (Mus musculus): 0.145

Question: For CC1(C)O[C@H]2N3[C@@H]1O[C@]1(CC[C@@]4(O)[C@H]5Cc6ccc(O)c7c6[C@@]4(CCN5Cc4ccccc4)[C@H]1O7)[C@H]3OC2(C)C, which Ki (Mu-type opioid receptor [1]) is on record?
Answer: 450 nM

Question: And the Ratio Ki [3]?
Answer: < 0.45

Question: What about the Ratio Ki [4] of the same compound?
Answer: > 2.22

Question: What about the Ki [5] of the same compound?
Answer: > 1000 nM

Question: And the Ki [6]?
Answer: > 1000 nM

Question: And the Ratio Ki (Mus musculus)?
Answer: > 2.22

Question: Which results are given for CC(C)CN1CC[C@]23c4c5ccc(O)c4O[C@H]2[C@]2(CC[C@@]3(O)[C@H]1C5)O[C@H]1N3[C@H](OC1(C)C)C(C)(C)O[C@@H]32?
Answer: Ki (Mu-type opioid receptor [1]): 88.1 nM; Ratio Ki [3]: < 0.088; Ratio Ki [4]: > 11.4; Ki [5]: > 1000 nM; Ki [6]: > 1000 nM; Ratio Ki (Mus musculus): > 11.4

Question: For CN1CC[C@]23c4c5ccc(O)c4O[C@H]2[C@]2(CC[C@@]3(O)[C@H]1C5)O[C@@H]1N3[C@@H](OC1(C)C)C(C)(C)O[C@H]32, which Ki (Mu-type opioid receptor [1]) is on record?
Answer: 2.67 nM

Question: What about the Ratio Ki [2] of the same compound?
Answer: < 0.0098

Question: What about the Ratio Ki [3] of the same compound?
Answer: < 0.0027

Question: And the Ratio Ki [4]?
Answer: > 375

Question: What about the Ki [5] of the same compound?
Answer: > 1000 nM

Question: And the Ki [6]?
Answer: 9.78 nM

Question: And the Ratio Ki (Mus musculus)?
Answer: 3.66

Question: With CC1(C)O[C@H]2N3[C@@H]1O[C@]1(CC[C@@]4(O)[C@H]5Cc6ccc(O)c7c6[C@@]4(CCN5CC4CC4)[C@H]1O7)[C@H]3OC2(C)C as the compound, how does the Ki (Mu-type opioid receptor [1]) read?
Answer: 2.14 nM

Question: What about the Ratio Ki [2] of the same compound?
Answer: 9.1

Question: And the Ratio Ki [3]?
Answer: 0.271

Question: And the Ratio Ki [4]?
Answer: 3.69

Question: What about the Ki [5] of the same compound?
Answer: 7.89 nM

Question: And the Ki [6]?
Answer: 71.8 nM

Question: What about the Ratio Ki (Mus musculus) of the same compound?
Answer: 33.6

Question: With CC1(C)O[C@@H]2N3[C@H]1O[C@]1(CC[C@@]4(O)[C@H]5Cc6ccc(O)c7c6[C@@]4(CCN5Cc4ccccc4)[C@H]1O7)[C@@H]3OC2(C)C as the compound, how does the Ki (Mu-type opioid receptor [1]) read?
Answer: > 1000 nM

Question: And the Ki [5]?
Answer: > 1000 nM

Question: What about the Ki [6] of the same compound?
Answer: > 1000 nM

Question: With CN1CC[C@]23c4c5ccc(O)c4O[C@H]2[C@]2(CC[C@@]3(O)[C@H]1C5)O[C@@H]1CO[C@@H]3CO[C@H]2N31 as the compound, how does the Ki (Mu-type opioid receptor [1]) read?
Answer: 2.34 nM

Question: What about the Ratio Ki [2] of the same compound?
Answer: 1.57

Question: What about the Ratio Ki [3] of the same compound?
Answer: 0.0214

Question: And the Ratio Ki [4]?
Answer: 46.6

Question: What about the Ki [5] of the same compound?
Answer: 109 nM

Question: What about the Ki [6] of the same compound?
Answer: 171 nM

Question: What about the Ratio Ki (Mus musculus) of the same compound?
Answer: 73.1

Question: For CC(C)CN1CC[C@]23c4c5ccc(O)c4O[C@H]2[C@]2(CC[C@@]3(O)[C@H]1C5)O[C@@H]1CO[C@@H]3CO[C@H]2N31, which Ki (Mu-type opioid receptor [1]) is on record?
Answer: 99.1 nM

Question: What about the Ratio Ki [2] of the same compound?
Answer: < 0.079

Question: And the Ratio Ki [3]?
Answer: < 0.099

Question: And the Ratio Ki [4]?
Answer: > 10.1

Question: And the Ki [5]?
Answer: > 1000 nM

Question: What about the Ki [6] of the same compound?
Answer: 79.1 nM

Question: And the Ratio Ki (Mus musculus)?
Answer: 0.798

Question: With CN1CC[C@]23c4c5ccc(O)c4O[C@H]2[C@]2(CC[C@@]3(O)[C@H]1C5)O[C@H]1N3[C@H](OC1(C)C)C(C)(C)O[C@@H]32 as the compound, how does the Ki (Mu-type opioid receptor [1]) read?
Answer: 1.85 nM

Question: And the Emax (Mu-type opioid receptor [9])?
Answer: 79.1%

Question: And the Ratio Ki [2]?
Answer: < 0.079

Question: And the Ratio Ki [3]?
Answer: < 0.0019

Question: What about the Ratio Ki [4] of the same compound?
Answer: > 541

Question: And the Ki [5]?
Answer: > 1000 nM

Question: And the Ki [6]?
Answer: 79.1 nM

Question: And the Ratio Ki (Mus musculus)?
Answer: 42.8

Question: And the EC50 (Mu-type opioid receptor [10])?
Answer: 6 nM

Question: Which Ki (Mu-type opioid receptor [1]) does the source give for CC(C)CN1CC[C@]23c4c5ccc(O)c4O[C@H]2[C@]2(CC[C@@]3(O)[C@H]1C5)O[C@@H]1N3[C@@H](OC1(C)C)C(C)(C)O[C@H]32 here?
Answer: 134 nM

Question: What about the Ratio Ki [2] of the same compound?
Answer: < 0.541

Question: What about the Ratio Ki [3] of the same compound?
Answer: < 0.134

Question: What about the Ratio Ki [4] of the same compound?
Answer: > 7.46

Question: What about the Ki [5] of the same compound?
Answer: > 1000 nM

Question: And the Ki [6]?
Answer: 541 nM

Question: What about the Ratio Ki (Mus musculus) of the same compound?
Answer: 4.04
